# In PubChem BioAssay (NCI):
#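 48-hour exposure; five concentrations; linearly interpolated endpoints. GI50 marks 50% less growth. At the TGI there is no net growth.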
# What was measured:
# Assay in all cases: DTP human tumour cell line panel, 48 h
# [1] = tested on: 786-0 renal
# [2] = tested on: A498 renal
# [3] = tested on: A549 NSCLC
# [4] = tested on: ACHN renal
# [5] = tested on: BT-549 breast
# [6] = tested on: CAKI-1 renal
# [7] = tested on: CCRF-CEM leukemia
# [8] = tested on: COLO 205 colon
# [9] = tested on: DU-145 prostate
# [10] = tested on: HCC-2998 colon
# [11] = tested on: HCT-116 colon
# [12] = tested on: HCT-15 colon
# [13] = tested on: HL-60(TB) leukemia
# [14] = tested on: HOP-62 NSCLC
# [15] = tested on: HOP-92 NSCLC
# [16] = tested on: HS 578T breast
# [17] = tested on: HT29 colon
# [18] = tested on: IGROV1 ovarian
# [19] = tested on: K-562 leukemia
# [20] = tested on: KM12 colon
# [21] = tested on: LOX IMVI melanoma
# [22] = tested on: M14 melanoma
# [23] = tested on: MALME-3M melanoma
# [24] = tested on: MCF7 breast
# [25] = tested on: MDA-MB-231 breast
# [26] = tested on: MDA-MB-435
# [27] = tested on: MOLT-4 leukemia
# [28] = tested on: NCI-H226 lung
# [29] = tested on: NCI-H23 lung
# [30] = tested on: NCI-H460 lung
# [31] = tested on: NCI-H522 lung
# [32] = tested on: NCI/ADR-RES ovarian
# [33] = tested on: OVCAR-3 ovarian
# [34] = tested on: OVCAR-4 ovarian
# [35] = tested on: OVCAR-5 ovarian
# [36] = tested on: OVCAR-8 ovarian
# [37] = tested on: PC-3 prostate
# [38] = tested on: RPMI-8226 leukemia
# [39] = tested on: RXF 393 renal
# [40] = tested on: SF-268 CNS
# [41] = tested on: SF-295 CNS
# [42] = tested on: SF-539 CNS
# [43] = tested on: SK-MEL-2 melanoma
# [44] = tested on: SK-MEL-28 melanoma
# [45] = tested on: SK-MEL-5 melanoma
# [46] = tested on: SK-OV-3 ovarian
# [47] = tested on: SN12C renal
# [48] = tested on: SNB-19 CNS
# [49] = tested on: SNB-75 CNS
# [50] = tested on: SR leukemia
# [51] = tested on: SW-620 colon
# [52] = tested on: T-47D breast
# [53] = tested on: TK-10 renal
# [54] = tested on: U251 CNS
# [55] = tested on: UACC-257 melanoma
# [56] = tested on: UACC-62 melanoma
# [57] = tested on: UO-31 renal
smiles,measurement,setting,value
COc1cc(NCCN=C(N)NC(N)=NC(C)C)c2ncccc2c1,GI50,[1],> 88.8 µM
same,TGI,[1],> 100 µM
same,GI50,[2],> 58.1 µM
same,TGI,[2],> 100 µM
same,GI50,[3],37.3 µM
same,TGI,[3],> 100 µM
same,GI50,[4],> 100 µM
same,TGI,[4],> 100 µM
same,GI50,[5],9.66 µM
same,TGI,[5],29.4 µM
same,GI50,[6],> 100 µM
same,TGI,[6],> 100 µM
same,GI50,[7],16.4 µM
same,TGI,[7],> 100 µM
same,GI50,[8],1.7 µM
same,TGI,[8],7.95 µM
same,GI50,[9],38.3 µM
same,TGI,[9],> 100 µM
same,GI50,[10],6.61 µM
same,TGI,[10],50.9 µM
same,GI50,[11],3.63 µM
same,TGI,[11],> 100 µM
same,GI50,[12],> 86 µM
same,TGI,[12],> 100 µM
same,GI50,[13],14.3 µM
same,TGI,[13],39.6 µM
same,GI50,[14],28.5 µM
same,TGI,[14],> 100 µM
same,GI50,[15],3.59 µM
same,TGI,[15],31.6 µM
same,GI50,[16],13 µM
same,TGI,[16],> 75.1 µM
same,GI50,[17],7.91 µM
same,TGI,[17],> 100 µM
same,GI50,[18],1.37 µM
same,TGI,[18],> 24.8 µM
same,GI50,[19],10.7 µM
same,TGI,[19],> 100 µM
same,GI50,[20],3.53 µM
same,TGI,[20],> 41.2 µM
same,GI50,[21],20.1 µM
same,TGI,[21],94.8 µM
same,GI50,[22],22.6 µM
same,TGI,[22],> 100 µM
same,GI50,[23],1.6 µM
same,TGI,[23],6.71 µM
same,GI50,[24],0.0297 µM
same,TGI,[24],0.116 µM
same,GI50,[25],3.17 µM
same,TGI,[25],21.4 µM
same,GI50,[26],18.6 µM
same,TGI,[26],41.9 µM
same,GI50,[27],25 µM
same,TGI,[27],> 100 µM
same,GI50,[28],39.7 µM
same,TGI,[28],> 100 µM
same,GI50,[29],3.25 µM
same,TGI,[29],15.7 µM
same,GI50,[30],5.67 µM
same,TGI,[30],> 57.6 µM
same,GI50,[31],3.61 µM
same,TGI,[31],40.7 µM
same,GI50,[32],> 100 µM
same,TGI,[32],> 100 µM
same,GI50,[33],1.06 µM
same,TGI,[33],23.1 µM
same,GI50,[34],0.0708 µM
same,TGI,[34],1.23 µM
same,GI50,[35],11.2 µM
same,TGI,[35],39.3 µM
same,GI50,[36],22.6 µM
same,TGI,[36],> 100 µM
same,GI50,[37],8.96 µM
same,TGI,[37],> 100 µM
same,GI50,[38],15.5 µM
same,TGI,[38],> 76.4 µM
same,GI50,[39],> 38.5 µM
same,TGI,[39],> 100 µM
same,GI50,[40],3.98 µM
same,TGI,[40],> 100 µM
same,GI50,[41],> 90.9 µM
same,TGI,[41],> 100 µM
same,GI50,[42],4.06 µM
same,TGI,[42],20 µM
same,GI50,[43],1.99 µM
same,TGI,[43],7.36 µM
same,GI50,[44],14.1 µM
same,TGI,[44],> 83.8 µM
same,GI50,[45],3.4 µM
same,TGI,[45],11.7 µM
same,GI50,[46],48.8 µM
same,TGI,[46],> 100 µM
same,GI50,[47],3.47 µM
same,TGI,[47],18.2 µM
same,GI50,[48],9.18 µM
same,TGI,[48],> 100 µM
same,GI50,[49],2.48 µM
same,TGI,[49],13.8 µM
same,GI50,[50],15 µM
same,TGI,[50],> 100 µM
same,GI50,[51],15.4 µM
same,TGI,[51],> 100 µM
same,GI50,[52],1.44 µM
same,TGI,[52],5.12 µM
same,GI50,[53],11.3 µM
same,TGI,[53],69.9 µM
same,GI50,[54],12.4 µM
same,TGI,[54],> 100 µM
same,GI50,[55],11 µM
same,TGI,[55],32.5 µM
same,GI50,[56],18.9 µM
same,TGI,[56],94.6 µM
same,GI50,[57],> 100 µM
same,TGI,[57],> 100 µM
